From patent US20260009799A1, “CA-IX TARGETING FLUORESCENT PROBES” (BRACCO IMAGING S.P.A., priority 2022, published 2026)

What was measured:
[1] = biological target: recombinant bovine CA-II enzyme (bCAII) (Bos taurus, UniProt P00921); test: Fluorescence-based dansylamide (DNSA) displacement assay on carbonic anhydrase catalytic site; conditions: for KD for bCAII, times lower than corresponding reference compound bearing the same cyanine dye: compound 1 vs Reference 2, compound 2 vs Reference 3
[2] = Optical characterization (excitation/emission maxima, molar extinction coefficient); format: physicochemical; conditions: for Max Em (nm, PBS pH 7.4) / Max Em (nm, Seronorm): emission maximum; for Max Em (nm, Seronorm) / Max Ex (nm, Seronorm): Seronorm control serum; for Max Ex (nm, PBS pH 7.4) / Max Ex (nm, Seronorm): excitation maximum
Protocol: A dual-beam UV-VIS spectrophotometer (Lambda 40, Perkin Elmer) was used to determine the absorbance (Abs) of the compounds of the invention. Emission/excitation (Em/Ex) spectra were carried out on a spectrofluorometer (FluoroLog-3 1IHR-320, Horiba Jobin Yvon) equipped with an F-3018 integrating sphere accessory. The measurements were performed using an excitation wavelength at maximum absorbance of different dyes, and the sample was excited with a 450 W Xenon light Source. Detection was performed by photomultiplier tubes (PMT-NIR) cooled detector or by TBX-04 detector. Dye solutions were carefully prepared to have an absorbance lower than 0.1 (optical densities) to minimize re-absorption phenomena.
The compounds of the invention were characterized in terms of their optical properties in vitro in aqueous medium (i.e., water/PBS pH 7.4) and in a clinical chemistry control serum (Seronorm, Sero SA), mimicking the chemical composition and optical properties of human serum. All solutions were freshly prepared. In particular, the compounds of the invention are characterized by absorption maxima comprised in the range from about 750 nm to 780 nm.
The excitation and emission maxima in PBS and Seronorm and the molar extinction coefficient (ε) in water of representative compounds of formula (I) are shown in Table I in comparison with the known CA-IX targeting fluorescent probe named Hypoxyfluor-1 (HF-1, for instance disclosed in Bioconjugate Chem 2018, 29, 3320-3331). […] Moreover, the extinction coefficients were higher than 200,000 mM^−1 cm^−1 for all compounds.

[3] = test system: HT-29 excised tumors and tissues; test: Ex vivo biodistribution in excised tumors and organs; set-up: species or system mice; conditions: for ex vivo TBR, times higher than respective References 2 and 3: 1 nmol/mouse, 24 hours; for Organ-to-muscle ratio, intestine (mean ± SD) / Organ-to-muscle ratio, kidney (mean ± SD) / Organ-to-muscle ratio, liver (mean ± SD) / Organ-to-muscle ratio, skin (mean ± SD) / Organ-to-muscle ratio, spleen (mean ± SD) / Organ-to-muscle ratio, stomach (mean ± SD): ex vivo, 24 hours after administration; for Organ-to-muscle ratio, intestine (mean ± SD) / Organ-to-muscle ratio, kidney (mean ± SD) / Organ-to-muscle ratio, liver (mean ± SD) / Organ-to-muscle ratio, skin (mean ± SD) / Organ-to-muscle ratio, spleen (mean ± SD) / Organ-to-muscle ratio, stomach (mean ± SD) / ex vivo TBR (mean ± SD), HT-29 tumor: 1 nmol; for ex vivo TBR (mean ± SD), HT-29 tumor: samples collected 24 hours after administration, tumor vs hind limb muscle
Protocol: The ex vivo biodistribution of the representative compounds 1 and 2 and of the reference compounds (at 1 nmol/mouse) was evaluated in HT-29 excised tumors and tissues at the end of the in vivo OI sessions 24 hours post intravenous administration. At the end of the in vivo experiment, animals were euthanized by overdose of gaseous anesthesia followed by cervical dislocation. Tumor tissue, muscle, and other organs of interest were removed for ex vivo fluorescent signal measurements. The fluorescence signal intensity was measured by the IVIS Spectrum system. Regions of interest (ROIs) were drawn around each organ and tumor using the Living Image Software (PerkinElmer) and evaluating signal intensity in the tissues (expressed as Average Radiant Efficiency). The ratio between the fluorescence signal in the organs and tumor was then calculated to assess the contrast to hind limb muscle (representing the background).

[4] = biological target: T1, human serum albumin (HSA) (Homo sapiens, UniProt P02768); test: Binding to albumin (ultrafiltration, absorbance of filtrates); format: in vitro ADME; conditions: 4.76 μM probe in PBS, 10 KDa cut off ultrafiltration, 25° C.; read-out: HSA affinity (KA, M^−1) (converted)
T1 construct: purchased Sigma-Aldrich A9511
T1 sequence (P02768 25-609): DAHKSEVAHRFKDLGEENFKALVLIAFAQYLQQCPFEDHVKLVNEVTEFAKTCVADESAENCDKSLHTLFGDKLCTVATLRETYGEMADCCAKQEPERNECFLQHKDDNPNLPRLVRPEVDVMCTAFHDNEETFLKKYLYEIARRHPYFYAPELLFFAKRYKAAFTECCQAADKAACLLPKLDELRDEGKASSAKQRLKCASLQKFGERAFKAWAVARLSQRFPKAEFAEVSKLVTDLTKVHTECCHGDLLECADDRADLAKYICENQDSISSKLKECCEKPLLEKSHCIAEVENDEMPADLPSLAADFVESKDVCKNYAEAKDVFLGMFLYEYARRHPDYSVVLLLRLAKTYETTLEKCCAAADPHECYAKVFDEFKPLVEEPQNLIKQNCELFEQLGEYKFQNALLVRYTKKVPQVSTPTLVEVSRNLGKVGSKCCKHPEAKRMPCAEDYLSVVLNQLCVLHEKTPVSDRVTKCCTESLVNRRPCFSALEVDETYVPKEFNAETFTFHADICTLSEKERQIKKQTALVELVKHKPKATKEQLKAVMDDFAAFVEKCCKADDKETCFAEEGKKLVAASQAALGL
Protocol: The affinity of the probes for human serum albumin (HSA) was determined to assess the influence of structural features on their albumin binding properties. Briefly, HSA (A9511, Sigma-Aldrich) was prepared in a […] stock solution in PBS and used to obtain a series of dilutions in PBS (0, 9.52·10^−7, 4.76·10^−6, 9.52·10^−6, 1.90·10^−5, 3.81·10^−5, 5.71·10^−5, 9.52·10^−5, 1.43·10^−4, 1.90·10^−4, 2.86·10^−4, 3.81·10^−4 M), in presence of 4.76 μM of the CA-IX-targeting probe (prepared from a 50 μM stock solution in PBS), in a total volume of 0.525 mL. The samples were centrifuged (10000 g for 30 min at 25° C.) in a Microcon device (10 KDa MW cut off, Amicon Ultra-0.5 Centrifugal Filter Unit with Ultracel-10 membrane) and the absorbance measurements of the filtrates were obtained with the spectrophotometer at the maximum absorbance wavelength of the fluorophore.
Data analysis was performed by fitting the raw data, using Microsoft Excel Solver, with the equation:
where ΔA/b=Absorbance measured (b=1 cm), KRL=KA calculated by fitting, Δε·Rt are calculated by fitting, and [L]=HSA concentration. ΔA/b values were experimentally obtained by subtracting the absorbance of “0 HSA sample” to the absorbance of each other sample.

[5] = test system: hypoxic HT-29 colorectal tumor, subcutaneously induced; test: In vivo tumor optical imaging (IVIS Spectrum), tumor-to-background ratio; set-up: species or system mice; conditions: 24 hours after intravenous administration, 1 nmol/mouse, tumor vs hind limb muscle
Protocol: HT-29 cells were collected and washed once with serum-free medium. Five million HT-29 cells were suspended in 0.1 mL serum-free medium and injected subcutaneously in the right flank of 5 weeks old mice. Tumor development was followed by caliper measurement twice a week, from 7 days after inoculation. Tumor volume was calculated according to the formula: (L*W2)/2, where L and W are the maximum length and width of the tumor.
Optical Imaging experiments on HT-29 tumor bearing animals were performed after administration of Reference 1, 2 and 3, and compounds 1 and 2, all at a dose of 1 nmol/mouse in an administration volume of 0.1 mL (corresponding to about 5 mL/kg, considering a 20 g-mouse) at an injection rate of about 1 mL/min, by the IVIS Spectrum system when the tumor reached at least 200 mm^3 volume. For each group, in vivo OI experiments were performed at 0.5, 1, 2, 3, 4, 6 and 24 hours after intravenous administration of the fluorescent compounds. During imaging experiments animals were maintained under gaseous anesthesia. Regions of interest (ROIs) were drawn on the tumor and on a reference background healthy region (hind limb muscle) of the mouse for each fluorescence image at every time point to evaluate signal intensity in the tissues (expressed as Average Radiant Efficiency). The ratio between the fluorescence signal in the tumor and in the background healthy tissue (tumor-to-background ratio, TBR) was then calculated to assess the contrast.
All the compounds of the invention and the References were tested at a dose of 1 nmol/mouse.

Sequence of recombinant bovine CA-II enzyme (bCAII) (P00921 whole entry): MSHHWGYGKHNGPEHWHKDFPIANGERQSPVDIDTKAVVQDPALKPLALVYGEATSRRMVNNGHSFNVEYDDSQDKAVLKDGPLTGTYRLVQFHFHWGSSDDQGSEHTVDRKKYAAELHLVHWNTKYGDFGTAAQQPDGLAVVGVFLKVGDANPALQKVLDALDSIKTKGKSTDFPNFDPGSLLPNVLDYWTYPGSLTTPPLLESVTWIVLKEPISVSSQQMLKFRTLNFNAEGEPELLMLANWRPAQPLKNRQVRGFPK

| Structure (SMILES) | Kd [1] [µM] | KD for bCAII, times lower than corresponding reference compound bearing the same cyanine dye [1] [times] | Max Em (nm, PBS pH 7.4) [2] [nm] | Max Em (nm, Seronorm) [2] [nm] | Max Ex (nm, PBS pH 7.4) [2] [nm] | Max Ex (nm, Seronorm) [2] [nm] | ex vivo TBR, times higher than respective References 2 and 3 [3] | Organ-to-muscle ratio, intestine (mean ± SD) [3] | Organ-to-muscle ratio, kidney (mean ± SD) [3] | Organ-to-muscle ratio, liver (mean ± SD) [3] | Organ-to-muscle ratio, skin (mean ± SD) [3] | Organ-to-muscle ratio, spleen (mean ± SD) [3] | Organ-to-muscle ratio, stomach (mean ± SD) [3] | ex vivo TBR (mean ± SD), HT-29 tumor [3] | Kd [4] [µM] | in vivo TBR (mean ± SD) [5] |
| --- | --- | --- | --- | --- | --- | --- | --- | --- | --- | --- | --- | --- | --- | --- | --- | --- |
| CC1(C)C(/C=C/C2=C(Oc3ccc(S(=O)(=O)O)cc3)C(=C/C=C3/N(CCCCCC(=O)NCCCCCCCC(=O)Nc4nnc(S(N)(=O)=O)s4)c4ccc(C(=O)NC[C@H](O)[C@@H](O)[C@H](O)[C@H](O)CO)cc4C3(C)C)/CCC2)=[N+](CCCCS(=O)(=O)[O-])c2ccc(C(=O)NC[C@H](O)[C@@H](O)[C@H](O)[C@H](O)CO)cc21 [Compound 1] | 0.0135 ± 0.0016 | 4 | 806 | 812 | 782 | 792 | about 1.5 times | 1.8 ± 0.4 | 6.0 ± 1.1 | 4.2 ± 0.7 | 1.2 ± 0.1 | 0.9 ± 0.2 | 5.4 ± 0.8 | 13.4 ± 2.2 | 80 | 5.2 ± 1.0 |
| CC(CC[N+]1=C(/C=C/C=C/C=C/C=C2/N(CCCCCC(=O)NCCCCCCCC(=O)Nc3nnc(S(N)(=O)=O)s3)c3ccc(C(=O)NC[C@H](O)[C@@H](O)[C@H](O)[C@H](O)CO)cc3C2(C)C)C(C)(C)c2cc(C(=O)NC[C@H](O)[C@@H](O)[C@H](O)[C@H](O)CO)ccc21)S(=O)(=O)[O-] (some centres unmarked) [Compound 2] | 0.0061 ± 0.0016 | 5 | 788 | 790 | 758 | 762 | about 1.5 times | 1.6 ± 0.3 | 7.1 ± 1.5 | 3.3 ± 0.4 | 1.5 ± 0.3 | 1.0 ± 0.1 | 6.8 ± 1.3 | 23.1 ± 6.7 | 105 | 10.1 ± 3.1 |
